{"source": "patent US8653023B1", "about": "“Dual beneficial effect of dopamine enhancing and neuroprotective actions of PKC delta inhibitors for treatment of Parkinson's disease” (Iowa State University Research Foundation, Inc., priority 2006, dated 2014)", "key": {"[1]": {"test_system": "dopaminergic neuronal cells", "assay": "MPP+ induced DNA fragmentation (genomic DNA fragmentation assay)", "assay_type": "cell-based", "description": "(§1) The ability of a PKCd inhibitor to decrease PKCd activity, for example, neurodegeneration or apoptotic activity, can be assessed using standard techniques known to one skilled in the art, including commercially available assays. These include apoptotic DNA Ladder assays, Cell Death Detection ELISA^PLUS (from Roche Applied Sciences), Caspase-3 Activity Assay^PLUS (from Roche Applied Sciences), terminal deoxynucleotidyl transferase-mediated dUTP [deoxy-uridine triphosphate] nick end labeling (TUNEL) assays. DNA-binding dyes or stains such as […] or DAPI or propidium iodide may be used to assess nuclear morphology and DNA damage. Kaul S, Kanthasamy A, Kitazawa M, Anantharam V, Kanthasamy A G, Caspase-3 dependent proteolytic activation of protein kinase C delta mediates and regulates 1-methyl-4-phenylpyridinium (MPP^+)-induced apoptotic cell death in dopaminergic cells: relevance to oxidative stress in dopaminergic degeneration. Eur J Neurosci. 2003 September; 18(6):1387-401."}, "[2]": {"test_system": "dopaminergic neuronal cells", "assay": "6-OHDA-induced DNA fragmentation (genomic DNA fragmentation assay)", "assay_type": "cell-based", "description": "as §1"}}, "note": "Where two headings read alike, the source gives them in different places. * marks the point of attachment. Cbz = O=C(OCc1ccccc1)*; CH2F = FC*", "data": [{"substance": "N-benzyloxycarbonyl-Asp(OMe)-Ile-Pro-Asp(OMe)-FMK (Cbz-D(OMe)IPD(OMe)-CH2F; SMILES CC[C@H](C)[C@H](NC(=O)[C@H](CC(=O)OC)NC(=O)OCc1ccccc1)C(=O)N1CCC[C@H]1C(=O)N[C@@H](CC(=O)OC)C(=O)CF; listed as Homo sapiens)", "values": [{"measurement": "MPP+ induced DNA fragmentation", "setting": "[1]", "result": "inhibited"}, {"measurement": "6-OHDA-induced DNA fragmentation", "setting": "[2]", "result": "effectively blocked"}, {"measurement": "6-OHDA-induced DNA fragmentation", "setting": "[2]; concentration as low as 3 μM", "result": "almost completely inhibits"}]}]}
